In patent US20240358862A1, “Synthesis Method and Application of a Near-infrared Probe GGa-ICG specific binding to PSCA” (Guangzhou Shiyun Biotechnology Co., Ltd, priority 2022, published 2024):

Assays:
[1] = system: cells; experiment: MTT experiment (in vitro cell toxicity); format: cell-based; details: 2-20 times the Kd value concentration
Experimental: MTT assay was used to measure the in vitro cell toxicity in a 96-well plate. In brief, cells (6×10^3 cells per well) were treated with GGa-ICG (at concentrations of 0, 20, 200 nM, 10 μM, etc.), free drugs, or hybrids in the culture medium (RPMI1640 without FBS, unless otherwise specified; 37° C.; 5% CO2). […]

[2] = system: tumor cell lines with elevated PSCA expression; experiment: Flow cytometry binding to other tumor cell lines; format: cell-based
From the text: PSCA is expressed at high levels in various tumors such as prostate cancer, bladder cancer, kidney cancer, breast cancer, colon cancer, lung cancer, pancreatic cancer, etc. Using the aforementioned method, T24 bladder cancer cells, Cakil renal cancer cells, MDA-MB468 breast cancer cells, HT29 colon cancer cells, PANC1 pancreatic cancer cells, NCI-H460 lung cancer cells, and other cell lines were stained with GGa-ICG for flow cytometry analysis. Positive cell lines were used to establish subcutaneous transplantation tumor models to detect the visualization of GGa-ICG in vivo.

[3] = target: T1, PSCA (Homo sapiens, UniProt O43653); experiment: Binding site of GGa-ICG on PSCA protein; details: sequence ALQPGTALLCYSCKA
T1 sequence (O43653 12-83): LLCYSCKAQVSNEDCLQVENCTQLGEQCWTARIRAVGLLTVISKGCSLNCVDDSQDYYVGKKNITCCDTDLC

[4] = system: PC-3 cells; experiment: Affinity detection by flow cytometry; format: binding, human; details: PC3 cells, 0-500 nM, 37° C., read-out: dissociation constant
Experimental: To test the affinity of different GGa-ICG aptamers for PC-3 cells, aptamers at different concentrations (0, 10, 20, 50, 100, 200, 500 nM) are incubated with 2×10^5 cells at 37° C. After digestion into a cell suspension, flow cytometry was used for analysis. The average fluorescence intensity of the background was subtracted from that of each sample. The equilibrium dissociation constant (Kd) for aptamer-cell interactions is calculated using SigmaPlot software.

[5] = system: prostate cancer lesions (PC-3 xenograft); experiment: In vivo imaging in PC-3 mouse xenograft model; design: species or system BALB/c nude mice
Experimental: Male BALB/c nude mice (BALB/c-nude) were purchased from Beijing SLAC Laboratory Animal Co., Ltd. Five-week-old nude mice were subcutaneously injected with 5×10^6 PC-3 cells on the back. The tumor was allowed to grow for 15 to 20 days until it reached a diameter of 0.5-1.5 cm. The BALB/c nude mice bearing tumors were anesthetized with sedatives and anesthetics. Once the mice were immobilized, a designated dose (0.1 mg, 0.5 mg, 1 mg, 2 mg per injection) of GGa-ICG or ssDNA-ICG was injected through the tail vein. At certain time points, fluorescent images of live mice were collected using the IVIS Lumina II in vivo imaging system. For ex vivo fluorescent experiments, tumor-bearing mice that were intravenously injected with GGa-ICG or ssDNA-ICG were euthanized by cervical dislocation 1 hour after injection under anesthesia. After dissection, organs including brain, liver, kidney, spleen, lung, heart, and tumor tissue were imaged using the IVIS Lumina II in vivo imaging system as described above.

[6] = Toxicity test of GGa-ICG (serum enzymatic testing); format: in vivo; details: serum of nude mice 72 hours after injection
Experimental: Blood serum was collected from nude mice injected with GGa-ICG for 72 hours and subjected to enzymatic testing.

[7] = target: T1, PSCA; experiment: Pull-down assay; format: binding; design: Membrane proteins of PC-3 cells were extracted; endogenous in cells; host or cells: PC-3; details: PC-3 membrane proteins, Western blotting with anti-PSCA antibody
Experimental: Membrane proteins of PC-3 cells were extracted and incubated with agarose beads, agarose-conjugated GGa-ICG, or an agarose-conjugated library. The resulting pull-down mixture containing proteins was analyzed by Western blotting using a PSCA-specific antibody. The captured proteins were analyzed by SDS-PAGE gel and Coomassie blue staining, followed by Western blotting using an anti-PSCA antibody.

[8] = doses of 0.1-2 mg/animal, tail vein

GGa-ICG: near-infrared probe: PSCA-binding nucleic acid aptamer GGa linked at 3′ to an ICG derivative dye (DNA TGCCACTACAGCTGGTTCGGTTTGGTGACTTCGTTCTTCGTTGTGGT; 3'-ICG dye, further chemistry not given here)
cell inhibition in MTT experiment [1]: no significant cell inhibition | binding to tumor cell lines with elevated PSCA expression [2]: could bind | binding site on PSCA protein (amino acids) [3]: 14-28 | Kd [4]: 0.0549 µM | time of optimal detection after injection [5, 8]: 8 to 12 h | time until which detection lasted [5, 8]: 24 to 48 h | binding to prostate cancer lesions in vivo ([5]; intravenous injection, at 2, 4, and 8 hours): specifically bound | metabolism pathway ([5]; mouse, in vivo): partially metabolized via the liver and kidney pathways | time within which probe in the organs was essentially metabolized ([5]; organs of tumor-bearing mice): ≤ 24 h | in vivo toxicity (serological test) [6]: did not show in vivo toxicity | pull-down of PSCA [7]: easily pulled down
